Test results taken from ChEMBL document CHEMBL1158863, “Oxidations of vincristine catalyzed by peroxidase and ceruloplasmin” (J Nat Prod, 1997).
In brackets after ≈: the same amount, converted by molar mass.

Test system: CCRF-CEM
Assay: Cytotoxicity against human CCRF-CEM cells
Assay type: functional, cell-based

Row | SMILES | IC50 [µg/mL]
1 | CC[C@H](O)C[C@@H]1CN(C=O)CCc2c([nH]c3ccccc23)[C@@](C(=O)OC)(c2cc3c(cc2OC)N(C=O)[C@H]2[C@@](O)(C(=O)OC)[C@H](OC(C)=O)[C@]4(CC)C=CCN5CC[C@]32[C@@H]54)C1 | 7.1 (≈ 8.44 µM)
2 | CC[C@]1(O)C[C@H]2CN(CCc3c([nH]c4ccccc34)[C@@](C(=O)OC)(c3cc4c(cc3OC)N(C=O)[C@H]3[C@@](O)(C(=O)OC)[C@H](OC(C)=O)[C@]5(CC)C=CCN6CC[C@]43[C@@H]65)C2)C1 [VINCRISTINE] | 0.06 (≈ 0.0727 µM)
3 | CC[C@]1(O)C[C@@H]2CN(CCc3c([nH]c4ccccc34)[C@@](C(=O)OC)(c3cc4c(cc3OC)N(C)[C@H]3[C@@](O)(C(=O)OC)[C@H](OC(C)=O)[C@]5(CC)C=CCN6CC[C@]43[C@@H]65)C2)C1 [VINBLASTINE] | 0.03 (≈ 0.037 µM)
4 | CCC(=O)C[C@@H]1CN(C=O)CCc2c([nH]c3ccccc23)[C@@](C(=O)OC)(c2cc3c(cc2OC)N(C)[C@H]2[C@](O)(C(=O)OC)[C@H](OC(C)=O)[C@]4(CC)C=CCN5CC[C@]32[C@@H]54)C1 [CATHARININE] | 7.7 (≈ 9.33 µM)
